According to US20220356174A1, “PYRIDIN-2-ONE COMPOUNDS USEFUL AS SMARCA2 ANTAGONISTS” (Epizyme, Inc., priority 2018, published 2022):
Like-named read-outs stand apart in the source and are kept apart here. Values belong to the compound of their own block, whether it stands above or below them.

Legend:
[1] = target: T1, FL-SMARCA2 (full-length human SMARCA2 isoform 1) (Homo sapiens, UniProt P51531); assay: SMARCA2 ATPase activity assay (ADP-Glo, chicken mononucleosome substrate); type: biochemical; settings: ATP 250 uM
T1 construct: FLAG tag (YKDDDDK) (C); made in house; host or cells: Sf21 insect cells (baculovirus, pFastBacI)
T1 sequence (P51531 with tags, fused parts or gaps): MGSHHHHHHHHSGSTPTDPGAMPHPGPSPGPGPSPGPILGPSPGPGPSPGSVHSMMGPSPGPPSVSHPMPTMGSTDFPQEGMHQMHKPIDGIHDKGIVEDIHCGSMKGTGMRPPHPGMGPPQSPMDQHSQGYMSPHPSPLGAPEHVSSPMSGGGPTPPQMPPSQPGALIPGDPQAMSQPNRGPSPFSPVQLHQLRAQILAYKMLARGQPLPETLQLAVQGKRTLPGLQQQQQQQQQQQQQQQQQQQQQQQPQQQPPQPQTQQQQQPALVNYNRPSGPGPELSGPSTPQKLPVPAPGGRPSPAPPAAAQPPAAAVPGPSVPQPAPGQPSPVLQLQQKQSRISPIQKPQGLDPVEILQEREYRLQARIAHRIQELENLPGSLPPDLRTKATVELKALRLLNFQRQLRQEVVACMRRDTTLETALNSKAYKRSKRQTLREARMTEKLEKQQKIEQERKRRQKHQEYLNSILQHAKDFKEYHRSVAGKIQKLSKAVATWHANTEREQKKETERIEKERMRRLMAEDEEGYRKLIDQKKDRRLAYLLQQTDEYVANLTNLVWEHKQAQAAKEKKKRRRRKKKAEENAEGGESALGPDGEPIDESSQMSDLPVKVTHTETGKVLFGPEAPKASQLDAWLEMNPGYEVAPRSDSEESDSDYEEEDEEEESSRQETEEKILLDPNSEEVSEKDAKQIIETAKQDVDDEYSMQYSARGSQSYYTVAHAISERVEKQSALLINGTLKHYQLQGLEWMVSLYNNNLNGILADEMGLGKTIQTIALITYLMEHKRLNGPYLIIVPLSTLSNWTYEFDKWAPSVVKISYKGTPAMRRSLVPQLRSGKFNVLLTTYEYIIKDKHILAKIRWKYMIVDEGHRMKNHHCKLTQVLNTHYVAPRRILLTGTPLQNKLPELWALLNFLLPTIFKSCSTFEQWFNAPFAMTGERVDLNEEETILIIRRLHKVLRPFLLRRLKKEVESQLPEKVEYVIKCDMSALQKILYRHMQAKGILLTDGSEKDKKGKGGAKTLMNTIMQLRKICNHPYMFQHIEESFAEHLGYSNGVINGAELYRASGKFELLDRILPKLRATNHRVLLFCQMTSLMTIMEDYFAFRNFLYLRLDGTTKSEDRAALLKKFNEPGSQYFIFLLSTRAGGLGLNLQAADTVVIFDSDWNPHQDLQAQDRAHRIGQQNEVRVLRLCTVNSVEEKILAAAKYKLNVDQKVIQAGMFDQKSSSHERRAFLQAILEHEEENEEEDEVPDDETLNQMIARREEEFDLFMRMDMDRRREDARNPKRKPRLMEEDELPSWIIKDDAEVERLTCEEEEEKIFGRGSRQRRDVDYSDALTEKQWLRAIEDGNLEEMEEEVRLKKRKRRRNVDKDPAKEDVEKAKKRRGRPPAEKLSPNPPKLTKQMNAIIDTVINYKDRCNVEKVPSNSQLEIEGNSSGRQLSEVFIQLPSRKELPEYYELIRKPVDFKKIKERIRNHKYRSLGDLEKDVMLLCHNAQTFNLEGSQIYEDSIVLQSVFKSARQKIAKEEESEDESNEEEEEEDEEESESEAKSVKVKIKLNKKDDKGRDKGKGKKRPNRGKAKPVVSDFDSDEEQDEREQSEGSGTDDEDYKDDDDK
From the text: Molecular Biology: Full-length human SMARCA2 isoform 1 (P51531) transcript clone was amplified from a cDNA library incorporating an N-terminal HIS tag ([…]) fused directly to Ser2 of SMARCA2 and a C-FLAG tag (YKDDDDK) fused directly to Glu1590 of SMARCA2. The amplified gene was subcloned into pFastBacI (Life Technologies).
Protein Expression: Recombinant baculovirus were generated and protein over-expression was accomplished by infecting exponentially growing Sf21 insect cell culture at 1.24×10^6 cell/ml with an MOI of 0.1. Infections were carried out for 76 hours, harvested by centrifugation, and stored at −80° C. for purification.
Expressed full-length SMARCA2 was purified from cell paste by FLAG affinity chromatography followed by anion exchange chromatography. The protein was dialyzed into a storage buffer containing 25 mM HEPES, 300 mM KCl, 10% Glycerol, pH 7.9, 1 mM TCEP and 0.01% Tween-20. The purity of the protein was measured as 74% using micro-capillary based gel electrophoresis.

FL-SMARCA4 = FL-SMARCA4 (Homo sapiens, UniProt P51532); assay: SMARCA4 ATPase activity assay (ADP-Glo, chicken mononucleosome substrate)
Sequence of FL-SMARCA4 (P51532 whole entry): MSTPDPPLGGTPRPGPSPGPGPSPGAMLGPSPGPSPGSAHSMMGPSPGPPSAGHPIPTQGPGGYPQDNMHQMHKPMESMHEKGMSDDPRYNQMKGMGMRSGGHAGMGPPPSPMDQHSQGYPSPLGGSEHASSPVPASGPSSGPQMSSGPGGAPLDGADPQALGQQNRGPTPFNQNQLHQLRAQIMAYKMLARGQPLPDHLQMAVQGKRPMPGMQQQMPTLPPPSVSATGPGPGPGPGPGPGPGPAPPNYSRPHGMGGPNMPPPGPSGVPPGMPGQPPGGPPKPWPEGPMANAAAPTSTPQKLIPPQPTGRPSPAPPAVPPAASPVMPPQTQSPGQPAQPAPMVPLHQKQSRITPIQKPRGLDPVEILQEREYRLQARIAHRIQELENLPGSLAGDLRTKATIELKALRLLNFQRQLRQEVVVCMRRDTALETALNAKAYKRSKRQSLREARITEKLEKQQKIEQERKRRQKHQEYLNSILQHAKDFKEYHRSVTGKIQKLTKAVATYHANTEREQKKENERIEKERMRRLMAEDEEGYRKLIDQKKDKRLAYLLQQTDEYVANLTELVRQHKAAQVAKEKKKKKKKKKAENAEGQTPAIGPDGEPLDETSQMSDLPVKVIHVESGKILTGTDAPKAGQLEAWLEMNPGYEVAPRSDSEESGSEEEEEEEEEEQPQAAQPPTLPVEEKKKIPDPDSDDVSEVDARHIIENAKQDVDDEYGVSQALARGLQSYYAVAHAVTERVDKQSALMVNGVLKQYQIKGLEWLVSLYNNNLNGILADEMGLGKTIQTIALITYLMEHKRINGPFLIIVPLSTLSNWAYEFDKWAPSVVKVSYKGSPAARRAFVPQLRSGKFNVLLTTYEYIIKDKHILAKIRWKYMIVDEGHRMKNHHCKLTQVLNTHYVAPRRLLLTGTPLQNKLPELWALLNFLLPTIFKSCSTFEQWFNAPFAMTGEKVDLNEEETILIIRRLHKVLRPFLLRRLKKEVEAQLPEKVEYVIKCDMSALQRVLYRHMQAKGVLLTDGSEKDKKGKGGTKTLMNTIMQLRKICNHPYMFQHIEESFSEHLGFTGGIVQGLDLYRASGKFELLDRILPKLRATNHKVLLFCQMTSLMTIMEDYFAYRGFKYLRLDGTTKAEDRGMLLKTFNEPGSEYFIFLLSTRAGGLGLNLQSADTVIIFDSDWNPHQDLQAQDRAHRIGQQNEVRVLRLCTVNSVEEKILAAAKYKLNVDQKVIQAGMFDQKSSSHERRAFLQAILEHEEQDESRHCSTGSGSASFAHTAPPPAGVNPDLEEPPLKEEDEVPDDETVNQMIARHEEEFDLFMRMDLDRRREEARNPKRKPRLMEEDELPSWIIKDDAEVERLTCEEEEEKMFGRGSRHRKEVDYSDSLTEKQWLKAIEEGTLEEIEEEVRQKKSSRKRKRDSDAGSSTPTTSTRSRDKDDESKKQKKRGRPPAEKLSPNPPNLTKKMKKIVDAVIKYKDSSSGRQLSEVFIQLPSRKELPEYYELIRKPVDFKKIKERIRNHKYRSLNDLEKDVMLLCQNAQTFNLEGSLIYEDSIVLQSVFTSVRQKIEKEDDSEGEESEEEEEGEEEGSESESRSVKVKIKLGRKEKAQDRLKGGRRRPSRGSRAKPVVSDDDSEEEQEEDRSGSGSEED

[2] = Table 3.1, ATPase assay, enzyme 5 nM, chicken mononucleosome 10 nM, 30 min preincubation
[3] = FL-SMARCA4 IC50, Table 3.2, ATPase assay, enzyme 5 nM, ATP 250 uM, chicken mononucleosome 10 nM, 30 min preincubation
[4] = Table 3a.1, SMARCA2 5 nM, mononucleosome 10 nM
[5] = FL-SMARCA4 IC50, Table 3a.2, SMARCA4 5 nM, ATP 250 uM, mononucleosome 10 nM
[6] = Table 3b.1, SMARCA2 5 nM, mononucleosome 10 nM
[7] = FL-SMARCA4 IC50, Table 3b.2, SMARCA4 5 nM, ATP 250 uM, mononucleosome 10 nM
[8] = Table 3c.1, ATPase assay, enzyme 5 nM, chicken mononucleosome 10 nM, 30 min preincubation
[9] = FL-SMARCA4 IC>50, Table 3c.2, ATPase assay, enzyme 5 nM, ATP 250 uM, chicken mononucleosome 10 nM, 30 min preincubation
[10] = Table 3d.1, ATPase assay, enzyme 5 nM, chicken mononucleosome 10 nM, 30 min preincubation, read-out: FL-SMARCA2 IC>50

- IC50 [1, 2]: > 50 µM
- IC50 (FL-SMARCA4; [3]): > 50 µM
Structure (SMILES): COCCn1cc(NC(=O)c2nc(C)n(-c3ccccc3Cl)n2)ccc1=O [Compound 11]

- IC50 [1, 4]: > 50 µM
- IC50 (FL-SMARCA4; [5]): > 50 µM
Structure (SMILES): CO[C@H]1C[C@@H](C(=O)Nc2cc(Cl)c(=O)n(C)c2)N(C)C1 [Compound 11a]

- IC50 [1, 6]: > 50 µM
- IC50 (FL-SMARCA4; [7]): > 50 µM
Structure (SMILES): CCn1cc(NC(=O)C2CCCC2)ccc1=O [Compound 11b]

- IC50 [1, 8]: > 50 µM
- IC50 (FL-SMARCA4; [9]): > 50 µM
Structure (SMILES): CS(=O)(=O)c1cc(NC(=O)c2cc(F)c(Cl)s2)cn(CC(F)F)c1=O [Compound 11c]

- IC50 [1, 2]: > 50 µM
- IC50 (FL-SMARCA4; [3]): > 50 µM
Structure (SMILES): Cn1cc(NC(=O)c2cnc(-c3ccco3)s2)cc(Cl)c1=O [Compound 12]

- IC50 [1, 4]: > 50 µM
- IC50 (FL-SMARCA4; [5]): > 50 µM
Structure (SMILES): CCC(CC)N1CC(C(=O)Nc2cc(Cl)c(=O)n(C)c2)CC1=O (stereo not shown) [Compound 12a]

- IC50 [1, 6]: > 50 µM
- IC50 (FL-SMARCA4; [7]): > 50 µM
Structure (SMILES): CCn1cc(NC(=O)C2CCCCC2)ccc1=O [Compound 12b]

- IC50 [1, 8]: 34.8 µM
- IC50 (FL-SMARCA4; [9]): > 50 µM
Structure (SMILES): O=C(Nc1cc(CO)c(=O)n(CC(F)F)c1)c1cc(F)c(Cl)s1 [Compound 12c]

- IC50 [1, 2]: > 50 µM
- IC50 (FL-SMARCA4; [3]): > 50 µM
Structure (SMILES): CCn1cc(NC(=O)c2cccn2C)ccc1=O [Compound 13]

- IC50 [1, 4]: > 50 µM
- IC50 (FL-SMARCA4; [5]): > 50 µM
Structure (SMILES): CCn1cc(NC(=O)C2CCOCC2)ccc1=O [Compound 13a]

- IC50 [1, 6]: > 50 µM
- IC50 (FL-SMARCA4; [7]): > 50 µM
Structure (SMILES): CCn1cc(NC(=O)[C@@H]2CCC[C@H](Cl)C2)ccc1=O [Compound 13b]

- IC50 [1, 8]: > 50 µM
- IC50 (FL-SMARCA4; [9]): > 50 µM
Structure (SMILES): Cn1nccc1-c1cc(NC(=O)c2cc(Cl)c(C(F)(F)F)s2)cn(CC(F)F)c1=O [Compound 13c]

- IC50 [1, 2]: > 50 µM
- IC50 (FL-SMARCA4; [3]): > 50 µM
Structure (SMILES): CCn1cc(NC(=O)c2c(C)noc2C)ccc1=O [Compound 14]

- IC50 [1, 4]: > 50 µM
- IC50 (FL-SMARCA4; [5]): > 50 µM
Structure (SMILES): CCn1cc(NC(=O)c2cccnc2)ccc1=O [Compound 14a]

- IC50 [1, 6]: > 50 µM
- IC50 (FL-SMARCA4; [7]): > 50 µM
Structure (SMILES): CCn1cc(NC(=O)[C@@H]2CCC[C@@H](Cl)C2)ccc1=O [Compound 14b]

- IC50 [1, 8]: > 50 µM
- IC50 (FL-SMARCA4; [9]): > 50 µM
Structure (SMILES): Cn1cc(-c2cc(NC(=O)c3cc(Cl)c(C(F)(F)F)s3)cn(CC(F)F)c2=O)cn1 [Compound 14c]

- IC50 [1, 2]: > 50 µM
- IC50 (FL-SMARCA4; [3]): > 50 µM
Structure (SMILES): CCn1cc(NC(=O)c2cc(C(F)(F)F)nn2C)ccc1=O [Compound 15]

- IC50 [1, 4]: > 50 µM
- IC50 (FL-SMARCA4; [5]): > 50 µM
Structure (SMILES): CCn1cc(NC(=O)c2ccc3c(c2)OCO3)ccc1=O [Compound 15a]

- IC50 [1, 6]: > 50 µM
- IC50 (FL-SMARCA4; [7]): > 50 µM
Structure (SMILES): CCn1cc(NC(=O)[C@@H]2CC[C@H](Cl)C2)ccc1=O [Compound 15b]

- IC50 [1, 8]: > 50 µM
- IC50 (FL-SMARCA4; [9]): > 50 µM
Structure (SMILES): O=C(Nc1cc(F)c(=O)n(CC(F)F)c1)[C@@H]1CCCN1 [Compound 15c]

- IC50 [1, 2]: > 50 µM
- IC50 (FL-SMARCA4; [3]): > 50 µM
Structure (SMILES): CCn1cc(NC(=O)c2cc(C)nn2C)ccc1=O [Compound 16]

- IC50 [1, 4]: 26.8 µM
- IC50 (FL-SMARCA4; [5]): > 50 µM
Structure (SMILES): CCn1cc(NC(=O)c2cnc(Cl)c(Cl)c2)ccc1=O [Compound 16a]

- IC50 [1, 6]: > 50 µM
- IC50 (FL-SMARCA4; [7]): > 50 µM
Structure (SMILES): CCn1cc(NC(=O)[C@H]2CC[C@@H](Cl)C2)ccc1=O [Compound 16b]

- IC50 [1, 8]: > 50 µM
- IC50 (FL-SMARCA4; [9]): > 50 µM
Structure (SMILES): O=C(Nc1cc(F)c(=O)n(CC(F)F)c1)[C@H]1CCCN1 [Compound 16c]

- IC50 [1, 10]: 16.7 µM
- IC50 (FL-SMARCA4; FL-SMARCA4 IC50): > 50 µM
Structure (SMILES): CCn1nc(NC(=O)c2cc(Cl)c(Cl)n2C)ccc1=O [Compound 16d]

- IC50 [1, 2]: 4.06 µM
- IC50 (FL-SMARCA4; [3]): 26.6 µM
Structure (SMILES): CCn1cc(NC(=O)c2cc(Cl)c(Cl)[nH]2)ccc1=O [Compound 17]

- IC50 [1, 4]: > 50 µM
- IC50 (FL-SMARCA4; [5]): > 50 µM
Structure (SMILES): CCn1cc(NC(=O)c2cncc(Cl)c2)ccc1=O [Compound 17a]

- IC50 [1, 6]: 0.645 µM
- IC50 (FL-SMARCA4; [7]): 4.78 µM
Structure (SMILES): O=C(Nc1cc(F)c(=O)n(CCF)c1)c1ccc(Cl)c(Cl)c1 [Compound 17b]

- IC50 [1, 8]: > 50 µM
- IC50 (FL-SMARCA4; [9]): > 50 µM
Structure (SMILES): CN(C)CCc1cc(NC(=O)c2cc(F)c(Cl)s2)cn(CC(F)F)c1=O [Compound 17c]

- IC50 [1, 10]: > 50 µM
- IC50 (FL-SMARCA4; FL-SMARCA4 IC50): > 50 µM
Structure (SMILES): CCn1cc(NC(=O)Nc2ccccn2)ccc1=O [Compound 17d]

- IC50 [1, 2]: 19.5 µM
- IC50 (FL-SMARCA4; [3]): > 50 µM
Structure (SMILES): CCn1cc(NC(=O)c2ccc(Cl)n2C)ccc1=O [Compound 18]

- IC50 [1, 4]: > 50 µM
- IC50 (FL-SMARCA4; [5]): > 50 µM
Structure (SMILES): CCn1cc(NC(=O)c2[nH]c3ccccc3c2C)ccc1=O [Compound 18a]
